For experiment [1], the system named is HepG2. The experiment in a line: Downregulation of LDLR protein level in human HepG2 cells by Western blotting analysis. The experiment is classed as functional, cell-based.
Experiment [2] has as its system HepG2. The experiment in a line: Downregulation of PCSK9 protein level in human HepG2 cells by Western blotting analysis. The experiment is classed as functional, cell-based.

The structures appear in SMILES notation. Activity calls are given as the source filed them. The rule behind the calls is not given here.

Take `CC(C)(C)OC(=O)N1CCN(Cc2ccc3nc(NC(=O)c4ccc(S(=O)(=O)NCCC#N)cc4)sc3c2)CC1`: the outcome in the experiment with HepG2 [1] and with HepG2 [2] was Active.

The values above are taken from ChEMBL document CHEMBL5584202, “Identification of benzothiazoles as novel PCSK9 inhibitors” (Bioorg Med Chem Lett, 2024).
